For 47 molecules, IC50 results are on record in US9556159B2, “Renin inhibitor” (MITSUBISHI TANABE PHARMA CORPORATION, priority 2012, dated 2017).

The test deals with T1, Recombinant human renin (Homo sapiens, UniProt P00797).
T1 sequence (P00797 67-406): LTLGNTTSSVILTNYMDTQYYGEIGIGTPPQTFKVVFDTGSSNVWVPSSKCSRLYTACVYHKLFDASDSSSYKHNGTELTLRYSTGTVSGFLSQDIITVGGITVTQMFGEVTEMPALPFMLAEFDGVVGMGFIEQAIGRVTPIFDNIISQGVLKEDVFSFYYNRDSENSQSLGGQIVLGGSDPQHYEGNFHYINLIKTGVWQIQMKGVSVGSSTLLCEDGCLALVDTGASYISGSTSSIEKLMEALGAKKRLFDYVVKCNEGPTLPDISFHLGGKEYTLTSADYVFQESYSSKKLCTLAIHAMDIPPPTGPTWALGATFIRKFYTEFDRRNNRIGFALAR
The experiment in a line: Inhibitory activity against human renin (fluorogenic peptide substrate). As to conditions: 50% inhibitory concentration (IC50) against human renin, 37° C. for 1 hour. It is filed as biochemical. The procedure: Inhibitory Activity Against Human Renin
A substrate of synthetic peptide (Nma-KHPFH LVIHK(Dnp)-NH2) and test compound were mixed, and fluorescence intensity was assayed using a fluorophotometer before starting an enzymatic reaction (exciting wavelength: 340 nm, measuring wavelength: 460 nm). Recombinant human renin was added and the mixture was incubated at 37° C. for 1 hour, and the fluorescence intensity was measured after the reaction using a fluorophotometer (exciting wavelength: 340 nm, measuring wavelength: 460 nm).
In the case of `COC(=O)NCCCn1nc([C@@H](C)N(C(=O)[C@H]2CNCCO2)C2CC2)cc1-c1ccccc1` [Example 159], the IC50 stood at 0.2 nM. On to `COCCCCn1cc([C@@H](C)N(C(=O)[C@H]2CNCCO2)C2CC2)nc1-c1ccccc1` [Example 160], for which the IC50 turned out to be 0.8 nM.

In the case of `CCc1nc([C@@H](C)N(C(=O)[C@H]2CNCCO2)C2CC2)cc2c1c(C#N)cn2CCCOC` [Example 161], the IC50 came to 0.7 nM. For `COC(=O)NCCCn1cc([C@@H](C)N(C(=O)[C@H]2CNCCO2)C2CC2)c2ncc(C(C)C)nc21` [Example 162], the IC50 was 0.6 nM. Turning to `COC(=O)NCCCn1cc([C@@H](C)N(C(=O)[C@H]2CNCCO2)C2CC2)nc1-c1ccc(C)cc1` [Example 163], the IC50 came out at 0.4 nM.

`COC(=O)NCCCn1cc([C@@H](C)N(C(=O)[C@H]2CNCCO2)C2CC2)nc1-c1ccc(C(F)(F)F)cc1` [Example 164]: the concentration for half-maximal inhibition (IC50) was 0.6 nM. To `COC(=O)NCCCn1cc([C@@H](C)N(C(=O)[C@H]2CNCCO2)C2CC2)nc1-c1cccc(F)c1` [Example 165] belongs 0.6 nM; to `COC(=O)NCCCn1nc([C@@H](C)N(C(=O)[C@H]2CNCC(C)(C)O2)C2CC2)c2ccc(C)nc21` [Example 166], 7 nM.

As to `COC(=O)NCCCc1cc([C@@H](C)N(C(=O)[C@H]2CNCCO2)C2CC2)nc2ccoc12` [Example 167], the IC50 was found to be 4.1 nM.

For `COC(=O)NCCCn1cc([C@@H](C)N(C(=O)[C@H]2CNCCO2)C2CC2)nc1-c1ccccc1F` [Example 168], the IC50 worked out at 0.3 nM.

In the case of `COC(=O)NCCCn1cc([C@@H](C)N(C(=O)[C@H]2CNCCO2)C2CC2)nc1-c1ccccc1Cl` [Example 169], the IC50 is 0.3 nM. For `COC(=O)NCCCn1cc([C@@H](C)N(C(=O)[C@H]2CNCCO2)C2CC2)nc1-c1ccc(Cl)cc1` [Example 170], the IC50 is 0.4 nM. To `COC(=O)NCCCn1cc([C@@H](C)N(C(=O)[C@H]2CNCCO2)C2CC2)nc1-c1ccc(F)cc1` [Example 171] belongs 0.4 nM. To `COC(=O)NCCCn1nc([C@@H](C)N(C(=O)[C@H]2CNCCO2)C2CC2)cc1-c1cccc(F)c1` [Example 172] belongs 0.4 nM; to `COC(=O)NCCCn1nc([C@@H](C)N(C(=O)[C@H]2CNCCO2)C2CC2)cc1-c1ccccc1F` [Example 173], 0.3 nM. To `COC(=O)NCCCn1nc([C@@H](C)N(C(=O)[C@H]2CNCCO2)C2CC2)cc1-c1ccc(OC)nc1` [Example 174] belongs 0.4 nM. For `COC(=O)NCCCn1cc([C@@H](C)N(C(=O)[C@H]2CNCCO2)C2CC2)nc1-c1cccc(Cl)c1` [Example 175], the IC50 stood at 0.3 nM.

Consider `COC(=O)NCCCn1nc([C@@H](C)N(C(=O)[C@H]2CNCCO2)C2CC2)cc1-c1cccc(C)n1` [Example 176], for which the IC50 stood at 0.4 nM. To `COC(=O)NCCCn1nc([C@@H](C)N(C(=O)[C@H]2CNCCO2)C2CC2)cc1-c1ccc(F)cn1` [Example 177] belongs 1 nM. To `COC(=O)NCCCn1cc([C@@H](C)N(C(=O)[C@H]2CNCCO2)C2CC2)nc1-c1cccc(C)c1` [Example 178] belongs 0.3 nM; to `COC(=O)NCCCn1cc([C@@H](C)N(C(=O)[C@H]2CNCCO2)C2CC2)nc1-c1ccccc1C` [Example 179], 0.3 nM; to `COC(=O)NCCCn1nc([C@@H](C)N(C(=O)[C@H]2CNCCO2)C2CC2)cc1-c1ccc(C)nc1` [Example 180], 0.6 nM. With `COC(=O)NCCCn1cc([C@@H](C)N(C(=O)[C@H]2CNCCO2)C2CC2)nc1C(C)C` [Example 181], the IC50 was 0.7 nM. To `COC(=O)NCCCc1nc([C@@H](C)N(C(=O)[C@H]2CNCCO2)C2CC2)cn1-c1ccccc1` [Example 182] belongs 0.7 nM; to `COC(=O)NCCCc1cc([C@@H](C)N(C(=O)[C@H]2CNCCO2)C2CC2)nn1-c1ccccc1` [Example 183], 0.3 nM. To `COC(=O)NCCCn1nc([C@@H](C)N(C(=O)[C@H]2CNCCO2)C2CC2)cc1-c1ccc(C)cn1` [Example 184] belongs 0.5 nM; to `COC(=O)NCCCn1nc([C@@H](C)N(C(=O)[C@H]2CNCCO2)C2CC2)cc1-c1ncccc1F` [Example 185], 0.3 nM; to `COC(=O)NCCCn1nc([C@@H](C)N(C(=O)[C@H]2CNCCO2)C2CC2)cc1-c1cccnc1` [Example 186], 0.4 nM. To `COC(=O)NCCCn1nc([C@@H](C)N(C(=O)[C@H]2CNCCO2)C2CC2)cc1-c1ncccc1C` [Example 187] belongs 0.5 nM; to `COC(=O)NCCCn1nc([C@@H](C)N(C(=O)[C@H]2CNCCO2)C2CC2)cc1C(C)C` [Example 188], 0.5 nM. For `COC(=O)NCCCn1nc([C@@H](C)N(C(=O)[C@H]2CNCCO2)C2CC2)c2c1CCCC2` [Example 189], the IC50 came out at 0.9 nM.

For the molecule `COC(=O)NCCCn1nc([C@@H](C)N(C(=O)[C@H]2CNCCO2)C2CC2)c2c1CCC2` [Example 190], the IC50 was found to be 1.2 nM. To `COC(=O)NCCCn1nc([C@@H](C)N(C(=O)[C@H]2CNCCO2)C2CC2)cc1C(C)(C)C` [Example 191] belongs 0.7 nM; to `COC(=O)NCCCn1nc([C@@H](C)N(C(=O)[C@H]2CNCCO2)C2CC2)c(F)c1-c1ccccc1` [Example 192], 0.2 nM; to `COC(=O)NCC(F)Cn1nc([C@@H](C)N(C(=O)[C@H]2CNCCO2)C2CC2)cc1-c1ccccc1` (some centres unmarked) [Example 193], 0.4 nM. To `C[C@H](c1cn(Cc2ccccc2)c(-c2ccccc2)n1)N(C(=O)[C@H]1CNCCO1)C1CC1` [Example 194] belongs 3 nM. To `COc1cccc(Cn2cc([C@@H](C)N(C(=O)[C@H]3CNCCO3)C3CC3)nc2-c2ccccc2)c1` [Example 195] belongs 3.6 nM; to `CCc1nc([C@@H](C)N(C(=O)[C@H]2CNC[C@@H](COC)O2)C2CC2)cc2c1ccn2CCCOC` [Example 196], 0.7 nM. For the molecule `COC(=O)NCCCc1cc([C@@H](C)N(C(=O)[C@H]2CNCCO2)C2CC2)sc1-c1ccccc1` [Example 197], the IC50 amounted to 0.2 nM. To `COC(=O)NCC(F)Cn1nc([C@@H](C)N(C(=O)[C@H]2CNCCO2)C2CC2)cc1-c1ccccc1` (some centres unmarked) [Example 198] belongs 0.2 nM.

Take `COC(=O)NCC(F)Cn1nc([C@@H](C)N(C(=O)[C@H]2CNCCO2)C2CC2)cc1-c1ccccc1` (some centres unmarked) [Example 199]: the IC50 is 0.2 nM.

For `CCCCCn1cc([C@@H](C)N(C(=O)[C@H]2CNCCO2)C2CC2)nc1-c1ccccc1` [Example 200], the 50% inhibitory concentration (IC50) is 4.5 nM.

Turning to `COC[C@@H]1CNC[C@H](C(=O)N(C2CC2)[C@H](C)c2cc(OC)c3ccccc3n2)O1` [Example 201], the IC50 was determined as 4.1 nM. To `COC(=O)NCCCn1cc([C@@H](C)N(C(=O)[C@H]2CNC[C@@H](C)O2)C2CC2)nc1-c1ccccc1` [Example 202] belongs 0.2 nM; to `COC(=O)NCCCn1cc([C@@H](C)N(C(=O)[C@H]2CNC[C@@H](C(F)(F)F)O2)C2CC2)nc1-c1ccccc1` [Example 203], 0.5 nM; to `COc1ccc(Cn2cc([C@@H](C)N(C(=O)[C@H]3CNCCO3)C3CC3)nc2-c2ccccc2)cc1` [Example 204], 7.1 nM.

On to `COCCCCn1nc([C@@H](C)N(C(=O)[C@H]2CNCCO2)C2CC2)cc1-c1ccccn1` [Example 205], for which the IC50 came to 1.4 nM.

The term IC50 denotes the midpoint of a concentration-inhibition curve.
